Results from patent US20200253877A1, “GEMCABENE, PHARMACEUTICALLY ACCEPTABLE SALTS THEREOF, COMPOSITIONS THEREOF AND METHODS OF USE THEREFOR” (NEUROBO PHARMACEUTICALS, INC., priority 2018, published 2020).

Tests used:
[1] = Aqueous solubility of gemcabene calcium salt forms over 24 hours (HPLC concentration, XRPD form); assay type: physicochemical; conditions: approximately 25° C.
Experimental: To each vial, approximately 3 mL to 4 mL water were added and the samples were mixed at ambient temperature (approximately 25° C.) for approximately 24 hours. […] From each vial, samples of the slurries were taken after 1, 4, and 24 hours, which were separated by centrifugation. The solids were separated by centrifugation and analyzed by XRPD for solid form and by HPLC for concentration.

[2] = Integrated analysis of efficacy from completed clinical studies: LDL-C; assay type: in vivo, human; conditions: inclusive of all background therapies
Source text: Gemcabene calcium salt hydrate Crystal Form 1 given on top of steady-state statins has shown a statin-intensity dependent effect. […] Statins inhibit cholesterol synthesis and upregulate LDL receptor expression to effect LDL-C reduction.

[3] = system: patients with hypercholesterolemia on stable statin therapy; test: 12-week placebo-controlled study of 600 mg QD in hypercholesterolemia patients on moderate and high-intensity statins: atherogenic and inflammatory biomarkers; assay type: in vivo, human
Experimental: High-risk patients including some, but not all those with heterozygous familial hypercholesterolemia (HeFH) or atherosclerotic cardiovascular disease (ASCVD) on appropriate diet and stable statin therapy for at least 12 weeks and LDL-C ≥100 mg/dL (2.59 mmol/L) and triglycerides <500 mg/dL (5.65 mmol/L) were randomized into a 12-week, placebo-controlled, parallel-group, double-blind study to assess the efficacy of gemcabene calcium salt hydrate Crystal Form 1 (PSD90=52 μm) 600 mg (300-mg film-coated Tablet D×2) QD on LDL-C and other lipoproteins and hsCRP (high-sensitivity C-reactive protein). Safety and tolerability were also evaluated. The patients were stratified by high- or moderate-intensity statin therapy, with or without ezetimibe, with a target of 52 patients (26 patients on 600 mg gemcabene calcium salt hydrate Crystal Form 1 as administered by 2×film-coated Tablet D and 26 patients on placebo (“placebo”)) in each stratum. […] Mean baseline LDL-C for all patients was approximately 134 mg/dL (3.48 mmol/L) with most patients in the high-intensity statin stratum on atorvastatin and most patients in the moderate-intensity stratum on either simvastatin or atorvastatin.
The aim of this study was to characterize gemcabene calcium salt hydrate Crystal Form 1's safety and tolerability and to determine gemcabene calcium salt hydrate Crystal Form 1's additive impact to statins on serum biomarker including atherogenic biomarkers (LDL-C, non-HDL-C, ApoB, ApoE, and triglyceride (TG)) and inflammatory biomarkers (hsCRP, serum amyloid A (SAA)).
Fifty patients (24 patients on 600 mg (Tablet D×2); 26 placebo) on baseline high-intensity (HI) statins received atorvastatin 40 mg or 80 mg QD; or rosuvastatin 20 mg or 40 mg QD. Fifty-five patients (29 patients on 600 mg GEM; 26 placebo) on baseline moderate-intensity (MI) statins received atorvastatin 10 mg or 20 mg QD; rosuvastatin 5 mg or 10 mg QD; or simvastatin 20 or 40 mg QD. Baseline LDL-C was 127 mg/dL and 134 mg/dL in the MI statin and HI statin stratum, respectively.
Within the study population, an analysis was performed in a subpopulation of patients having mixed dyslipidemia (LDL-C ≥100 mg/dL and triglycerides ≥200 and <500 mg/dL). Eighteen patients (10 (film-coated Tablet D×2) patients and 8 placebo patients) having a baseline mean LDL-C level of 142 mg/dL, baseline mean triglyceride level of 247 mg/dL and BMI of 34 kg/m^2 were analyzed (FIG. 48). Although not measured in the subpopulation of this Example, some cardiometabolic patients could have elevated sulphatase-2 (Sulf-2) levels, which are believed to cause reduced Syndecan-1 (also known as “remnant receptor”)-mediated clearance of atherogenic remnant lipoproteins. Without being bound by theory, the data shown in FIG. 48 support the inventors' belief that administration of film-coated Tablet D, which comprises a compound of the invention, rescues remnant receptor activity.

[4] = Steady-state plasma gemcabene pharmacokinetics (600 mg daily) in healthy female subjects; assay type: in vivo, human
Experimental: An open-label, two-sequence, cross-over study to assess the steady-state effects of gemcabene calcium on the single-dose pharmacokinetics (PK) of oral contraceptive tablets in healthy female subjects was conducted with 300 mg tablets containing gemcabene calcium salt hydrate Crystal Form 1 having PSD90 of 52 μm (film-coated Tablet F).
The population for this study was generally healthy, adult female subjects of childbearing potential (≥18 to ≤35 years of age). This population supports the overall objective of the study to evaluate the effect of 600 mg of gemcabene calcium salt hydrate Crystal Form 1 having PSD90 of 52 μm at steady-state on the PK of a single dose of ON 1/35 (Ortho Novum 1/35; combined ethinyl estradiol/norethindrone oral contraceptive). The primary objective of this study was to assess the effect of daily 600 mg of gemcabene calcium salt hydrate Crystal Form 1 having PSD90 of 52 μm at steady-state on the pharmacokinetics (PK) of ON 1/35. The secondary objectives of this study were to assess the safety and tolerability of daily gemcabene 600 mg in combination with a single-dose ON 1/35 and to assess the steady-state PK of 600 mg of gemcabene calcium salt hydrate Crystal Form 1 having PSD90 of 52 μm (film-coated Tablet F×2). […]

[5] = patients with mixed dyslipidemia, 600 mg QD on statins (FIG. 48)

Compound | change in polymorphic form during the test period (XRPD) ([1]; slurry in water, 24 hours) | change in concentration (HPLC) during the experiment ([1]; slurry in water, sampled 1, 4, 24 hours) | solubility at 1 h ([1]; thermodynamic from solid, water, 1 h, read-out: Conc. (aqueous solubility)) | solubility at 4 h ([1]; thermodynamic from solid, water, 4 h, read-out: Conc. (aqueous solubility)) | solubility at 24 h ([1]; thermodynamic from solid, water, 24 h, read-out: Conc. (aqueous solubility)) | Form (XRPD) of solid in water slurry ([1]; water, 1 h) | Form (XRPD) of solid in water slurry ([1]; water, 4 h) | Form (XRPD) of solid in water slurry ([1]; water, 24 h) | mean LDL-C reduction [2] | atherogenic and inflammatory markers ([3]; hypercholesterolemia patients on MI and HI statins, 600 mg QD, 12 weeks) | reduction in ApoB [3, 5] | reduction in ApoE [3, 5] | reduction in LDL-C [3, 5] | reduction in TG [3, 5] | reduction in non-HDL-C [3, 5] | mean Cmin [4]
CC(C)(CCCCOCCCCC(C)(C)C(=O)O)C(=O)O.[Ca] [6-(5-Carboxy-5-methyl-hexyloxy)-2,2-dimethylhexanoic acid calcium] | no change in polymorphic form | small increase | 96.2 mg/mL | 98.3 mg/mL | 99.5 mg/mL | Form 1 | Form 1 | Form 1 | about 21% | significant reductions | 26% | 34% | 23% | 33% | 19% | 
CC(C)(CCCCOCCCCC(C)(C)C(=O)O)C(=O)O [gemcabene, 6-(5-carboxy-5-methyl-hexyloxy)-2,2-dimethyl-hexanoic acid] |  |  |  |  |  |  |  |  |  |  |  |  |  |  |  | 102.68 µg/mL
